Measured values: patent US20220372585A1, “Sensors for Aromatic Compounds and Methods of Making and Using Same” (Washington University, priority 2021, published 2022)
Where two headings read alike, the source gives them in different places.

Tests used:
WT TrpR = target: T1, WT TrpR (Escherichia coli, UniProt P0A881); assay: WT TrpR system, repression of GFP expression; type: cell-based, E. coli
T1 construct: trpR (WT); expressed in transfected cells; host or cells: E. coli Nissle 1917 (EcN), genomic trpR knocked out; plasmid pMBA035 (P17-trpR)
Source text: Among the various aspects of the present disclosure is the provision of systems and methods for detecting aromatic compounds. An aspect of the present disclosure provides for a method of protein engineering (e.g., a regulator protein) comprising: mutagenizing specific amino acids in and around a ligand-binding site of a protein, wherein the mutagenizing enables changes in ligand-protein binding specificity while maintaining protein-DNA interaction and thus downstream gene expression control; and/or linking ligand-protein binding to output response. An aspect of the present disclosure provides for an engineered molecular sensor. […] In some embodiments, the engineered regulator protein or the ligand-protein binding site or a sequence encoding the engineered regulator protein or the ligand-protein binding site of the engineered regulator protein is at least about 80% identical to a WT regulator protein or a WT regulator ligand-protein binding site; or a sequence encoding the engineered regulator protein or ligand binding site thereof is at least about 80% identical to a sequence encoding the WT regulator protein or the WT regulator ligand-protein binding site; or functional fragment thereof, the engineered regulator protein having ligand binding activity. In some embodiments, the engineered molecular sensor is optionally genomically integrated into a microorganism, optionally selected from a probiotic or is a purified cell-free sensor. In some embodiments, the engineered regulator protein or enzyme is an engineered TrpR, TyrR, TynA, or FeaR protein. […] In some embodiments, the engineered regulator protein is an engineered TrpR and is a tryptophan (Trp)-, 5-hydroxytryptophan (5-HTP)-, or tryptamine (Trpta)-specific sensor. In some embodiments, the engineered regulator protein or enzyme is an engineered TrpR, TyrR, TynA, or FeaR, and/or wherein the engineered TrpR, TyrR, TynA, or FeaR comprises at least one mutation to a ligand-protein binding site having specific amino acid binding activity. […]

TrpR variant OD = target: T2, TrpR variant OD (Escherichia coli, UniProt P0A881, A80L/G78C/I79C/K72S/T83R); assay: TrpR OD variant with synthetic Ptrp promoter, repression of GFP expression; type: cell-based, E. coli
T2 construct: trpR (OD); expressed in transfected cells; host or cells: E. coli Nissle 1917 (EcN), genomic trpR knocked out; plasmid pMBA103 (P17-trpR(OD))
Source text: (§1) Among the various aspects of the present disclosure is the provision of systems and methods for detecting aromatic compounds. An aspect of the present disclosure provides for a method of protein engineering (e.g., a regulator protein) comprising: mutagenizing specific amino acids in and around a ligand-binding site of a protein, wherein the mutagenizing enables changes in ligand-protein binding specificity while maintaining protein-DNA interaction and thus downstream gene expression control; and/or linking ligand-protein binding to output response. An aspect of the present disclosure provides for an engineered molecular sensor. […] In some embodiments, the engineered regulator protein or the ligand-protein binding site or a sequence encoding the engineered regulator protein or the ligand-protein binding site of the engineered regulator protein is at least about 80% identical to a WT regulator protein or a WT regulator ligand-protein binding site; or a sequence encoding the engineered regulator protein or ligand binding site thereof is at least about 80% identical to a sequence encoding the WT regulator protein or the WT regulator ligand-protein binding site; or functional fragment thereof, the engineered regulator protein having ligand binding activity. […]

TrpR variant O1 = target: T3, TrpR variant O1 (Escherichia coli, UniProt P0A881, A80R/G78N/I79W/K72S/T83K); assay: TrpR O1 variant with synthetic Ptrp promoter, repression of GFP expression; type: cell-based, E. coli
T3 construct: trpR (O1); expressed in transfected cells; host or cells: E. coli Nissle 1917 (EcN), genomic trpR knocked out; plasmid pMBA173 (P17-trpR(O1))
Source text: as §1

TynA-FeaR system = assay: microbe, parasite or virus in culture; details: for EC50: Escherichia coli, read-out: KA (half maximal constant)
Description: To develop sensors for aromatic amines, the TynA-FeaR system was first characterized in EcN. A sensor plasmid was constructed, which consisted of constitutively expressed TynA and FeaR from E. coli MG1655, and a reporter plasmid, which consisted of GFP under the control of PtynA (see e.g., FIG. 3B). […] Next, the sensitivity and selectivity to different ligands was characterized.
For fluorescence-based quantification, single colonies were transferred to 5 mL LB medium (VWR, Radnor, Pa., USA) in 14 mL round bottom tubes and incubated overnight at 250 rpm and 37° C. Unless otherwise specified, experimental cultures were prepared by diluting overnight cultures 100× into 0.6 mL M9 minimal medium supplemented with 1 mM MgSO4, […]), and 2% w/v glycerol as well as the respective ligands (DA, PEA, Tyra, and Trypta) in 2 mL 96-deep well plates. Cultures were grown for 24 h at 37° C. and 250 rpm. After 5 h and 24 h of incubation, samples were obtained from the cultures for flow cytometry analysis.
Flow cytometry was performed as previously described. Culture samples were collected and diluted to a final OD600 of ˜0.005-0.01 in […] filtered phosphate-buffered saline supplemented with 2 mg/ml kanamycin in 96-well assay microplates (U-bottom, REF-353910 from BD Biosciences, San Jose, Calif., USA). The fluorescence of the samples was measured using a Millipore Guava EasyCyte High Throughput flow cytometer with a 488 nm excitation laser and 512/18 nm emission filter. Cytometry data was gated by forward and side scatter. FlowJo (TreeStar Inc.) was used to obtain the arithmetic mean of the fluorescence distribution. The averages of the arithmetic means were calculated from three biological replicates. The average fluorescence of the non-fluorescent wild-type cell was subtracted from each sample to obtain the final fluorescence (au) values (Equation 2). To obtain the relative fluorescence in FIG. 6A-FIG. 6C, fluorescence values for each variant were normalized to the fluorescence of the wild-type sensor using Equation 3.
The Hill equation (Equations 4 and 5) was used to fit lines to the fluorescence data. The model was fit to the experimentally collected data by minimizing the root mean square error (RMSE; Equation 6).

[1] = test system: G415H TynA with wild-type FeaR; type: cell-based, E. coli MG1655; details: G415H TynA + wild-type FeaR, pCX008, pCX015
Description: (§2) Flow cytometry was performed as previously described. […] Cytometry data was gated by forward and side scatter.

G494S TynA and A81S FeaR = type: cell-based, E. coli MG1655; details: G494S TynA and A81S FeaR; 5 h and 24 h; FIG. 23A-B
Description: as §2

[2] = test system: G494S TynA with A81T FeaR; type: cell-based, E. coli MG1655; details: G494S*; 5 h; FIG. 17A
Description: as §2

[3] = test system: G494S TynA with wild-type FeaR; type: cell-based, E. coli MG1655; details: G494S TynA, wild-type FeaR; 5 h and 24 h; FIG. 18A-B
Description: as §2

[4] = test system: wild-type TynA with A81T FeaR; type: cell-based, E. coli MG1655; details: wild-type TynA; 1 mM, 24 h; FIG. 21
Description: as §2

[5] = test system: wild-type TynA with L108T FeaR; type: cell-based, E. coli MG1655; details: 24 h, FIG. 28B
Description: as §2

[6] = test system: wild-type TynA with M83Q FeaR; type: cell-based, E. coli MG1655; details: 24 h, FIG. 28A
Description: as §2

[7] = test system: wild-type TynA with W110C FeaR; type: cell-based, E. coli MG1655; details: 24 h, FIG. 28D
Description: as §2

[8] = test system: wild-type TynA with W110S FeaR; type: cell-based, E. coli MG1655; details: 24 h, FIG. 28C
Description: as §2

[9] = test system: wild-type TynA and A81L FeaR; assay: microbe, parasite or virus in culture; type: cell-based, E. coli MG1655; details: A81L FeaR; 5 h; FIG. 24
Description: as §2

[10] = test system: wild-type TynA with A81P FeaR; assay: microbe, parasite or virus in culture; type: cell-based, E. coli MG1655; details: A81P FeaR; 5 h and 24 h; FIG. 25A-B
Description: as §2

[11] = test system: wild-type TynA with M83N FeaR; assay: PtynA-GFP reporter, wild-type TynA with M83N FeaR (pCX073); type: cell-based, E. coli MG1655; details: pCX008, pCX073, FIG. 6E, 24 h
Description: as §2

[12] = test system: TynA-KP with FeaR-KA I109N; assay: GFP fluorescence from PtynA-MG with TynA-KP and FeaR-KA I109N; type: cell-based, Klebsiella aerogenes
Source text: FIG. 32. […] Sensor system with PtynA-MG, TynA-KP and FeaR-KA was chosen as the wild type (WT) for further directed evolution. TynA-KP was employed to reduce the possible interference from DA during evolution processes. Values and error bars are the average and standard deviation of biological triplicate, respectively.
FIG. 33A-FIG. 33B. […] The expression of PtynA-MG was regulated by the TynA-KP with FeaR-KA I109N mutant. Points represent experimental data while lines represent the fitted curves. […] Values and error bars are the average and standard deviation of biological triplicate, respectively.

[13] = Sauerkraut, safe limit; cited from earlier work
[14] = wild-type TynA and FeaR, pCX008, pHJY022, FIG. 3D, 24 h induction
[15] = wild-type TynA and FeaR, pCX008, pHJY022, FIG. 14, 5 h induction
[16] = wild-type TynA + L108T FeaR, pCX008, pCX099
[17] = wild-type TynA + M83Q FeaR, pCX008, pCX083
[18] = wild-type TynA + W110C FeaR, pCX008, pCX117
[19] = wild-type TynA + W110S FeaR, pCX008, pCX116

Compound: N[C@@H](Cc1c[nH]c2ccc(O)cc12)C(=O)O [5-HTP, 5-hydroxytryptophan]
- fold repression of GFP expression (WT TrpR): 20 fold
- fold repression (TrpR variant OD): about 7 fold
- fold repression (TrpR variant O1): about 15 fold

Compound: N[C@@H](Cc1c[nH]c2ccccc12)C(=O)O [Trp, tryptophan]
- fold repression of GFP expression (WT TrpR): 120 fold
- fold repression (TrpR variant OD): about 5 fold
- fold repression (TrpR variant O1): about 60 fold

Compound: NCCc1ccc(O)cc1 [Tyramine, tyramine]
- EC50 (TynA-FeaR system; 5 h): 37 µM
- EC50 (TynA-FeaR system; 24 h): 77 µM
- Fmin (TynA-FeaR system; [14]): 4.4
- n (Hill coefficient) (TynA-FeaR system; [14]): 5
- Fmax (TynA-FeaR system; [15]): 311
- Fmin (TynA-FeaR system; [15]): 10.6
- n (Hill coefficient) (TynA-FeaR system; [15]): 1.6
- Fmax ([1]; FIG. 4D, 24 h): 226
- Fmin ([1]; FIG. 4D, 24 h): 0
- n (Hill coefficient) ([1]; FIG. 4D, 24 h): 0.9
- Fmax ([1]; FIG. 17B, 5 h): 152
- Fmin ([1]; FIG. 17B, 5 h): 0
- n (Hill coefficient) ([1]; FIG. 17B, 5 h): 0.8
- response (G494S TynA and A81S FeaR): lack of response
- response [2]: lack of response
- response [3]: lack of response
- effect of the A81T FeaR mutation on the response of the sensor [4]: insignificant impact
- response ([5]; L108T FeaR): lack of response
- Fmax [5, 16]: 78
- Fmin [5, 16]: 1.8
- n (Hill coefficient) [5, 16]: 1.6
- response ([6]; M83Q FeaR): lack of response
- Fmax [6, 17]: 55
- Fmin [6, 17]: 0.4
- n (Hill coefficient) [6, 17]: 8.4
- response ([7]; W110C FeaR): lack of response
- Fmax [7, 18]: 148
- Fmin [7, 18]: 0.9
- n (Hill coefficient) [7, 18]: 9.7
- response ([8]; W110S FeaR): lack of response
- Fmax [8, 19]: 127
- Fmin [8, 19]: 1.5
- n (Hill coefficient) [8, 19]: 9.8
- response [9]: lack of response
- response [10]: lack of response
- Fmax [11]: 158
- Fmin [11]: 1.5
- n (Hill coefficient) [11]: 12
- response ([12]; FeaR-KA I109N, 5 h and 24 h, FIG. 33A-B): lack of response
- induction of fluorescence ([12]; I109N variant, 0.5 mM, 24 h, FIG. 32): not
- Concentration [13]: 120 µM
